From US20240307283A1, “COMPOSITIONS AND METHODS FOR DECREASING PIGMENTATION” (The General Hospital Corporation, priority 2021, published 2024)

Key:
murine Melan-A cells = experiment: Melanin content of Melan-A cells with NNT inhibitors; type: cell-based, mouse; conditions: 2 mM, FIG. 3A
Experimental: Murine Melan-A (Bennett et al., 1987) cells were obtained from the Wellcome Trust Functional Genomics Cell Bank. Melan-A cells were grown in RPMI 1640 supplemented with 10% FBS or FetalPlex (Gemini Bio-Products, #100-602), 100,000 U/L penicillin, 100 mg/L streptomycin sulphate, 100× Glutamax, and 200 nM TPA.
(§1) In vitro culture with NNT inhibitors: 2,3-Butanedione 97% (2,3 BD) (Sigma Aldrich, #B85307) (1 μM, 10 μM, 100 μM, 2 mM), N,N-Dicyclohexylcarbodiimide (DCC) (Sigma Aldrich, #D80002) (1 mM, 2 mM, 10 mM), and Palmitoyl coenzyme A lithium salt (Sigma Aldrich, #P9716) (10 μM, 2 mM) were reconstituted with DMSO (American Type Culture Collection, 4-X).
(§2) Melanin quantification: Equal numbers of cells were plated in 6-well plates. The cells were then harvested 72-96 hours post siRNA or NNT inhibitors compounds, as indicated in the legends, pelleted, washed in PBS and counted. 10^6 cells were used for measurement of protein concentration with the Pierce BCA protein assay (Thermo Fisher Scientific, #23225) and 10^6 cells were resuspended in 60 μl of 1 N NaOH solution and incubated at 60° C. for 2 h or until the melanin was completely dissolved. After cooling down to room temperature, samples were centrifuged at 500×g for 10 min and the supernatants were loaded onto a 96-well plate. The melanin content was determined by measuring the absorbance at 405 nm on an Envision plate reader, compared with a melanin standard (0 to 50 μg/ml; Sigma Aldrich, #M8631). Melanin content was expressed as micrograms per milligram of protein.

[1] = tested on: primary human melanocytes; experiment: Intracellular melanin content of primary human melanocytes with NNT inhibitors; type: cell-based; conditions: 2.3 BD 2 mM for 72 hours, FIG. 10D
Description: Primary human melanocytes were isolated from normal discarded foreskins and were established in TIVA medium as described previously (Khaled et al., 2010) or in Medium 254 (Life Technologies, #M254500) (Allouche et al., 2015). Human melanoma cell line UACC257 (sex unspecified) was obtained from the National Cancer Institute (NCI), Frederick Cancer Division of Cancer Treatment and Diagnosis (DCTD) Tumor Cell Line Repository. SK-MEL-30 ([…]) human melanoma cell line was from Memorial Sloan Kettering Cancer Center. Both melanoma cell lines have been authenticated by our lab using ATCC's STR profiling service. UACC257 and SK-MEL-30 cells were cultured in DMEM and RPMI medium (Life Technologies, #11875119) respectively, supplemented with 10% fetal bovine serum and 1% penicillin/streptomycin/L-glutamine in a humidified atmosphere of 95% air and 5% CO2 at 37° C.
as §1, §2

[2] = tested on: human melanocytes, dermal fibroblasts, and keratinocytes; experiment: Cell viability of human skin cells with NNT inhibitors; type: cell-based; conditions: up to 10 μM, FIG. 10B
Experimental: Primary human keratinocytes were cultured in EpiLife® medium supplemented with human keratinocyte growth supplement (HKGS, ThermoFisher Scientific). Primary human fibroblasts were cultured in medium 106 supplemented with low serum growth supplement (LSGS, ThermoFisher Scientific). 10^6 and […] cells were plated per well of 6-well and 96-well plates, respectively. Drugs indicated in the figure legends were dissolved in DMSO and added 1:1000 to the culture media for 24 h at the concentrations indicated.
(§3) Cell viability assay: Human melanoma cell lines and isolated primary cultured human melanocytes were propagated and tested in early passage (Passages 7 to 9). The effects of NNT inhibitors (2,3BD, DCC, and Palmitoyl coenzyme A lithium salt) on cell viability were evaluated by the CellTiter-Glo Luminescent Cell Viability Assay (Promega, #G7570) and measurement of luminescence was performed on an EnVision 2104 Multilabel Reader (PerkinElmer). Human melanoma cell lines and primary melanocytes were plated on 96-well white plates (10,000 cells/well) and were treated with the NNT inhibitors at the indicated concentrations for 24 h.

primary melanocytes = experiment: Cell viability of primary melanocytes, different doses; type: cell-based, human; conditions: different doses, relative to vehicle, FIG. 10C
Experimental: as §3

[3] = tested on: UACC257 human melanoma cell line; experiment: Cell viability of UACC257 cells; type: cell-based; conditions: different doses, FIG. 10E
Experimental: as §3

zebrafish melanocytes = experiment: Chemical treatment of zebrafish, melanocytic brightness; type: in vivo; conditions: 24 hours, 100 μM 2,3BD or 50 μM DCC
Experimental: Wildtype Tübingen zebrafish were placed in a 24 well plate at 72 hours post-fertilization, with 10 larvae per well for a total twenty larvae per condition. Larvae were treated for 24 hours with either 2,3BD (1 μM, 10 μM, 100 μM, 1 mM; Sigma Aldrich, #B85307), DCC (1 μM, 10 μM, 50 μM, 100 μM; Sigma Aldrich, #D80002), or DMSO (1:500) in E3 embryo medium. At 4 days post fertilization, larvae were imaged using a Nikon SMZ18 Stereomicroscope. Melanocytes from at least 5 zebrafish embryos of each group for each experiment were analyzed using the FIJI software enabling pixel-based color quantification.

NNT [4] = molecular target: T1, NNT (Homo sapiens, UniProt Q13423); experiment: GSH/GSSG ratio in UACC257 melanoma cells; type: cell-based; parameters: endogenous in cells; conditions: different doses
T1 sequence (Q13423 44-1086): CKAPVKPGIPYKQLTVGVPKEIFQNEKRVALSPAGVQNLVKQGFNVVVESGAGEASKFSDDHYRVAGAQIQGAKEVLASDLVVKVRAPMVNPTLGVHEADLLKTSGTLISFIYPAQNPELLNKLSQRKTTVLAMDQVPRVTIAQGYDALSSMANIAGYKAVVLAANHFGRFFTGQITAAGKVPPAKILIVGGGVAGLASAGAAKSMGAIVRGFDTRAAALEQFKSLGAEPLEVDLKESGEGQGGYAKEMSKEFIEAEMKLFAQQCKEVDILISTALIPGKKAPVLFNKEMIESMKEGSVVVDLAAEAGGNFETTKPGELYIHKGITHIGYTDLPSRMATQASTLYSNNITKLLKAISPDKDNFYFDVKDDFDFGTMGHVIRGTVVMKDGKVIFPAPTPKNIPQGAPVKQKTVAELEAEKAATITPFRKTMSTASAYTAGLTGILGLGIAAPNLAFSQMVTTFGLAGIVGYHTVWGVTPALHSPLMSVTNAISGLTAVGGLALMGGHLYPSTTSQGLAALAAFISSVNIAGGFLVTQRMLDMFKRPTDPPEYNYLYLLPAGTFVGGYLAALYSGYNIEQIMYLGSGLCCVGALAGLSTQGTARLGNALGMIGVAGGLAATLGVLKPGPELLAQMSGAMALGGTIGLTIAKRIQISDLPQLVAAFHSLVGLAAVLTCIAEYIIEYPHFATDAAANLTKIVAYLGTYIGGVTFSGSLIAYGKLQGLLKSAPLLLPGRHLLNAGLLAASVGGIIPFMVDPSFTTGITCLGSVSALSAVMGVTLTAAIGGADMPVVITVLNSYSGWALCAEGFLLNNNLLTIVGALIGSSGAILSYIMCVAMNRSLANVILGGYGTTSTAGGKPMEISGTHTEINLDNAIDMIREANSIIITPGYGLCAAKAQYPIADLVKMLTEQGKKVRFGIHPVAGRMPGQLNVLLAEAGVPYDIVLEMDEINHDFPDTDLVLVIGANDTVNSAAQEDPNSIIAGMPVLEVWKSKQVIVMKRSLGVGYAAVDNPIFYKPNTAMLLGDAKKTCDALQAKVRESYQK
Experimental: (§4) Glutathione measurements: Cell lysates were prepared from equal numbers of cells after 24 h of DCC or 2,3BD treatment, following the manufacturer's protocols. Seventy-two h post siRNA treatment or overexpression of NNT and their corresponding controls, glutathione levels were determined using the GSH/GSSG-Glo assay (Promega, #V6611) and luminescence was measured using an EnVision 2104 Multilabel Reader (PerkinElmer).

NNT [5] = molecular target: T1, NNT; experiment: GSH/GSSG ratio (indirect endpoint of NNT enzyme activity) in primary melanocytes; type: cell-based; parameters: endogenous in cells; host or cells: primary human melanocytes (isolated from neonatal foreskins); conditions: different doses, 24 hours
Experimental: as §4

Q: Which results are given for C(=NC1CCCCC1)=NC1CCCCC1 [DCC, N,N′-Dicyclohexylcarbodiimide]?
A: melanin content (murine Melan-A cells): increased melanin content; intracellular melanin content [1]: significantly increased the melanin content; toxicity (viability) [2]: no significant toxicity; cell viability (primary melanocytes): no impacts on cell viability; cell viability [3]: no impact on cell viability; darkening of zebrafish embryos (melanocytic brightness) (zebrafish melanocytes): significant darkening; GSH/GSSG ratio (NNT [4]): decreased GSH/GSSG ratios; GSH/GSSG ratio (NNT [5]): decreased GSH/GSSG ratios
